Measurements as given in patent US4153710A, “N-(4-[2-(pyrazole-1-carbonamide)-ethyl]-benzenesulphonyl)-urea” (Starogardzkie Zaklady Farmaceutyczne POLFA, priority 1976, dated 1979).
Where “and” joins values, the source holds several entries; their conditions need not be identical. Equal entries are not always repeated.

Legend:
[1] = test system: oxygen consumption in mitochondria of a rat's liver; test: Oxygen consumption of rat liver mitochondria; assay type: biochemical
Procedure: 2-oxoglutaran 2 mM, ADP 1 mM, mitochondria | protein 4 mg/m. […] The

[2] = test system: calcium transmission in mitochondria of a rat's liver; test: Calcium transmission to rat liver mitochondria; assay type: biochemical; details: for % of inhibition, calcium transmission: medium with CaCl 300 nmoles/ml
Procedure: Sucrose 170mM, KCl 10 mM, MgCl2 […], K2 HPO 5 mM, EGTA 0.01 mM
2-oxoglutaran 2 mM, ADP 1 mM, mitochondria
protein 4 mg/m. Temperature 25° C.
of hydrogen ion consumption. The calcium transmission to mitochondria was
studied with two methods; in a continuous way with a Radiometer calcium
electrode type F2112 or with an isotopic method.
*The medium contained Ca Cl 300 nmoles/ml.

[3] = test system: oxidizing phosphorylation in mitochondria of a rat's liver; test: Oxidizing phosphorylation of rat liver mitochondria; assay type: biochemical
Procedure: 2-oxoglutaran 2 mM, ADP 1 mM, mitochondria | protein 4 mg/m. […] The | oxidizing phosphorylation speed was determined by means of the measuremen | of hydrogen ion consumption. The calcium transmission to mitochondria was […]

[4] = test system: blood-glucose concentration; test: Decrease in blood-glucose concentration in rats after oral dose (Table 1; ED30 rats Table 2); assay type: in vivo; details: Rattus norvegicus, po; for inhibition in vivo at 4 mg/kg: p.os. 4 mg/kg; for inhibition in vivo at 10 mg/kg: p.os. 10 mg/kg; for inhibition in vivo at 50 mg/kg: p.os. 50 mg/kg; for ED50: p.os., Table 1; for inhibition in vivo at 1 mg/kg: p.os. 1 mg/kg; for inhibition in vivo at 2 mg/kg: p.os. 2 mg/kg; for inhibition in vivo at 0.5 mg/kg: p.os. 0.5 mg/kg; for inhibition in vivo at 5 mg/kg: p.os. 5 mg/kg; for inhibition in vivo at 20 mg/kg: p.os. 20 mg/kg
Excerpt: The hypoglycemic activity of N-{4-[2-(pyrazole-1-carbonamide)-ethyl]-benzenesulphonyl}-ureas prepared according to the present invention can be noticed after their oral administration to mice, rats, rabbits and people and when determining the glucose concentration in blood with a known enzymatic method using glucose oxidase.
The exemplary comparison of effective doses (ED30) and the effect of oral dose size of the compounds prepared according to the present invention with Glibornuride, which is distinguished by its high effectiveness and good tolerance when administered to people, on the glucose concentration in the blood of rats, is given in Table 1.

For `COc1ccc(Cl)cc1C(=O)NCCc1ccc(S(=O)(=O)NC(=O)NC2CCCCC2)cc1` [Glibenclamide], the “% of inhibition, oxygen consumption” value ([1]; concentration 0.01 n M) was 26%, the “% of inhibition, oxygen consumption” value ([1]; concentration 0.02 n M) was 43% and the “% of inhibition, oxygen consumption” value ([1]; concentration 0.05 n M) was 60% and 63%. The “% of inhibition, oxygen consumption” value ([1]; concentration 0.1 n M) was 75%, the “% of inhibition, oxygen consumption” value ([1]; concentration 0.5 n M) was 87% and the Ki ([1]; rat liver mitochondria) was 30 µM. For the same compound, the “Calcium transmission / Oxide consumption (ratio of inhibition)” value ([2]; concentration 0.01 n M) was 0.46, the “% of inhibition, calcium transmission” value ([2]; concentration 0.01 n M) was 12% and the “Calcium transmission / Oxide consumption (ratio of inhibition)” value ([2]; concentration 0.02 n M) was 0.65. The “% of inhibition, calcium transmission” value ([2]; concentration 0.02 n M) was 28%, the “Calcium transmission / Oxide consumption (ratio of inhibition)” value ([2]; concentration 0.05 n M) was 0.82 and the “% of inhibition, calcium transmission” value ([2]; concentration 0.05 n M) was 52%. The “Calcium transmission / Oxide consumption (ratio of inhibition)” value ([2]; concentration 0.1 n M) was 0.90, the “% of inhibition, calcium transmission” value ([2]; concentration 0.1 n M) was 68% and the “Calcium transmission / Oxide consumption (ratio of inhibition)” value ([2]; concentration 0.5 n M) was 0.97. The “% of inhibition, calcium transmission” value ([2]; concentration 0.5 n M) was 85%, the Ki ([2]; rat liver mitochondria) was 47 µM and the “preference of inhibition: calcium transmission versus oxidizing processes” value ([2]; rat liver mitochondria) was “acts much stronger on oxidizing and phosphorylation processes than on the calcium transmission”. The “Ki ratio SPC-5002 / Glibenclamide, calcium transmission” value ([2]; ratio of inhibitor constants) was 10, the “% of inhibition, oxidizing phosphorylation” value ([3]; concentration 0.01 n M) was 29% and the “% of inhibition, oxidizing phosphorylation” value ([3]; concentration 0.02 n M) was 48%. The “% of inhibition, oxidizing phosphorylation” value ([3]; concentration 0.05 n M) was 60%, the “% of inhibition, oxidizing phosphorylation” value ([3]; concentration 0.1 n M) was 80% and the “% of inhibition, oxidizing phosphorylation” value ([3]; concentration 0.5 n M) was 100%. The Ki ([3]; rat liver mitochondria) was 22 µM.
For `CCCCNC(=O)NS(=O)(=O)c1ccc(C)cc1` [Tolbutamide], the “% of inhibition, oxygen consumption” value ([1]; concentration 1.0 n M) was 14%, the “Calcium transmission / Oxide consumption (ratio of inhibition)” value ([2]; concentration 1.0 n M) was 1.92 and the “% of inhibition, calcium transmission” value ([2]; concentration 1.0 n M) was 27%. For the same compound, the “preference of inhibition: calcium transmission versus oxidizing processes” value ([2]; rat liver mitochondria) was “preferential inhibiting of calcium transmission” and the “% of inhibition, oxidizing phosphorylation” value ([3]; concentration 1.0 n M) was 7%.
In the case of `Cc1nn(C(=O)NCCc2ccc(S(=O)(=O)NC(=O)NC3CCCCC3)cc2)c(C)c1C` [compound 10], the inhibition in vivo at 4 mg/kg ([4]; 1 h) is reported as 24%, the inhibition in vivo at 4 mg/kg ([4]; 3 h) is reported as 35% and the inhibition in vivo at 4 mg/kg ([4]; 6 h) is reported as 28%. For the same compound, the inhibition in vivo at 10 mg/kg ([4]; 1 h) was 35%, the inhibition in vivo at 10 mg/kg ([4]; 3 h) was 49% and the inhibition in vivo at 10 mg/kg ([4]; 6 h) was 17%. The inhibition in vivo at 50 mg/kg ([4]; 1 h) was 48%, the inhibition in vivo at 50 mg/kg ([4]; 3 h) was 62% and the inhibition in vivo at 50 mg/kg ([4]; 6 h) was 52%. The ED50 [4] was 4 mg/kg.
In the case of `CCc1c(C)nn(C(=O)NCCc2ccc(S(=O)(=O)NC(=O)NC3CCCCC3)cc2)c1C` [compound 11], the inhibition in vivo at 4 mg/kg ([4]; 1 h) is reported as 16%, the inhibition in vivo at 4 mg/kg ([4]; 3 h) is reported as 27% and the inhibition in vivo at 4 mg/kg ([4]; 6 h) is reported as 3%. The inhibition in vivo at 10 mg/kg ([4]; 1 h) was 29%, the inhibition in vivo at 10 mg/kg ([4]; 3 h) was 53% and the inhibition in vivo at 50 mg/kg ([4]; 1 h) was 57%. It also gave an inhibition in vivo at 50 mg/kg ([4]; 3 h) of 60%, an inhibition in vivo at 50 mg/kg ([4]; 6 h) of 53% and an ED50 [4] of 4.8 mg/kg.
`CCCc1c(C)nn(C(=O)NCCc2ccc(S(=O)(=O)NC(=O)NC3CCCCC3)cc2)c1C` [compound 12] was tested, and the inhibition in vivo at 10 mg/kg ([4]; 1 h) was 14%, the inhibition in vivo at 10 mg/kg ([4]; 6 h) was 10% and the inhibition in vivo at 50 mg/kg ([4]; 1 h) was 22%. The inhibition in vivo at 50 mg/kg ([4]; 3 h) was 39% and the inhibition in vivo at 50 mg/kg ([4]; 6 h) was 32%.
With `CCCCc1c(C)nn(C(=O)NCCc2ccc(S(=O)(=O)NC(=O)NC3CCCCC3)cc2)c1C` [compound 13] the inhibition in vivo at 10 mg/kg ([4]; 1 h) was 0%, the inhibition in vivo at 50 mg/kg ([4]; 1 h) was 18% and the inhibition in vivo at 50 mg/kg ([4]; 3 h) was 27%. It also gave an inhibition in vivo at 50 mg/kg ([4]; 6 h) of 3%.
For `Cc1nn(C(=O)NCCc2ccc(S(=O)(=O)NC(=O)NC3CCCCC3)cc2)c(C)c1Cl` [compound 14], the inhibition in vivo at 1 mg/kg ([4]; 1 h) was 11%, the inhibition in vivo at 1 mg/kg ([4]; 3 h) was 21% and the inhibition in vivo at 1 mg/kg ([4]; 6 h) was 7%. It also gave an inhibition in vivo at 2 mg/kg ([4]; 1 h) of 14%, an inhibition in vivo at 2 mg/kg ([4]; 3 h) of 24% and an inhibition in vivo at 2 mg/kg ([4]; 6 h) of 14%. The inhibition in vivo at 4 mg/kg ([4]; 1 h) was 21%, the inhibition in vivo at 4 mg/kg ([4]; 3 h) was 29% and the inhibition in vivo at 4 mg/kg ([4]; 6 h) was 11%. For the same compound, the ED50 [4] was 5 mg/kg.
For `O=C(NC1CCCC1)NS(=O)(=O)c1ccc(CCNC(=O)n2cccn2)cc1` [compound 15], the inhibition in vivo at 4 mg/kg ([4]; 1 h) was 14%, the inhibition in vivo at 4 mg/kg ([4]; 3 h) was 5% and the inhibition in vivo at 10 mg/kg ([4]; 1 h) was 20%. For the same compound, the inhibition in vivo at 10 mg/kg ([4]; 3 h) was 16% and the inhibition in vivo at 10 mg/kg ([4]; 6 h) was 7%.
Work on `Cc1ccn(C(=O)NCCc2ccc(S(=O)(=O)NC(=O)NC3CCCC3)cc2)n1` [compound 16] yielded an inhibition in vivo at 4 mg/kg ([4]; 1 h) of 18%, an inhibition in vivo at 4 mg/kg ([4]; 3 h) of 14% and an inhibition in vivo at 10 mg/kg ([4]; 1 h) of 16%. It also gave an inhibition in vivo at 10 mg/kg ([4]; 3 h) of 20%.
For `Cc1cnn(C(=O)NCCc2ccc(S(=O)(=O)NC(=O)NC3CCCC3)cc2)c1` [compound 17], the inhibition in vivo at 2 mg/kg ([4]; 1 h) was 29%, the inhibition in vivo at 2 mg/kg ([4]; 3 h) was 16% and the inhibition in vivo at 2 mg/kg ([4]; 6 h) was 5%. For the same compound, the inhibition in vivo at 4 mg/kg ([4]; 1 h) was 41%, the inhibition in vivo at 4 mg/kg ([4]; 3 h) was 41% and the inhibition in vivo at 4 mg/kg ([4]; 6 h) was 23%. The inhibition in vivo at 10 mg/kg ([4]; 1 h) was 41%, the inhibition in vivo at 10 mg/kg ([4]; 3 h) was 51% and the inhibition in vivo at 10 mg/kg ([4]; 6 h) was 28%. It also gave an ED50 [4] of 2.3 mg/kg.
Work on `CCCCNC(=O)NS(=O)(=O)c1ccc(CCNC(=O)n2ccc(C)n2)cc1` [compound 21] yielded an inhibition in vivo at 0.5 mg/kg ([4]; 1 h) of 6%, an inhibition in vivo at 0.5 mg/kg ([4]; 3 h) of 22% and an inhibition in vivo at 0.5 mg/kg ([4]; 6 h) of 29%. It also gave an inhibition in vivo at 1 mg/kg ([4]; 1 h) of 23%, an inhibition in vivo at 1 mg/kg ([4]; 3 h) of 23% and an inhibition in vivo at 1 mg/kg ([4]; 6 h) of 22%. For the same compound, the inhibition in vivo at 5 mg/kg ([4]; 1 h) was 22%, the inhibition in vivo at 5 mg/kg ([4]; 3 h) was 38% and the inhibition in vivo at 5 mg/kg ([4]; 6 h) was 43%. The inhibition in vivo at 10 mg/kg ([4]; 1 h) was 55%, the inhibition in vivo at 10 mg/kg ([4]; 3 h) was 53% and the inhibition in vivo at 10 mg/kg ([4]; 6 h) was 56%. For the same compound, the inhibition in vivo at 20 mg/kg ([4]; 1 h) was 50%, the inhibition in vivo at 20 mg/kg ([4]; 3 h) was 55% and the inhibition in vivo at 20 mg/kg ([4]; 6 h) was 56%.
Compound `CCCNC(=O)NS(=O)(=O)c1ccc(CCNC(=O)n2ccc(C)n2)cc1` [compound 22] has an inhibition in vivo at 2 mg/kg ([4]; 1 h) of 4%, an inhibition in vivo at 2 mg/kg ([4]; 3 h) of 26% and an inhibition in vivo at 2 mg/kg ([4]; 6 h) of 23%. For the same compound, the inhibition in vivo at 5 mg/kg ([4]; 1 h) was 15%, the inhibition in vivo at 5 mg/kg ([4]; 3 h) was 24% and the inhibition in vivo at 5 mg/kg ([4]; 6 h) was 26%. The inhibition in vivo at 10 mg/kg ([4]; 1 h) was 25%, the inhibition in vivo at 10 mg/kg ([4]; 3 h) was 29% and the inhibition in vivo at 10 mg/kg ([4]; 6 h) was 35%. For the same compound, the inhibition in vivo at 20 mg/kg ([4]; 1 h) was 45%, the inhibition in vivo at 20 mg/kg ([4]; 3 h) was 56% and the inhibition in vivo at 20 mg/kg ([4]; 6 h) was 56%. It also gave an inhibition in vivo at 50 mg/kg ([4]; 1 h) of 54%, an inhibition in vivo at 50 mg/kg ([4]; 3 h) of 55% and an inhibition in vivo at 50 mg/kg ([4]; 6 h) of 48%.
